Source: ChEMBL document CHEMBL4052604, “Englerins: A Comprehensive Review” (J Nat Prod, 2017)
pIC50: −log10 of the molar value.

Key:
[1] = system: A498; assay: Cytotoxicity against human A498 cells assessed as reduction in cell viability; format: functional, cell-based
[2] = system: A498; assay: Antiproliferative activity against human A498 cells after 48 hrs by sulphorhodamine B assay; format: functional, cell-based; conditions: A498, 48 h

| SMILES | pIC50 [1] | pIC50 [2] |
| --- | --- | --- |
| CC[C@@]12C[C@@H](OC(=O)CO)[C@@](C)(O1)[C@@H]1CC[C@@H](C)[C@H]1[C@@H]2OC(=O)/C=C/c1ccccc1 | 6.02 |  |
| CC(C)[C@@]12C[C@@H](OC(=O)CO)[C@@](C)(O1)[C@@H]1CC[C@@H](C)[C@H]1[C@@H]2OC(=O)c1ccc(Cl)cc1Cl | 6.55 |  |
| C[C@@H]1CC[C@@H]2[C@@H]1[C@H](OC(=O)/C=C/c1ccccc1)[C@]1(C)C[C@@H](OC(=O)CO)[C@@]2(C)O1 | 5.34 |  |
| CC1(C)C2C[C@H](OC(=O)/C=C/c3ccccc3)C1(C)C[C@H]2OC(=O)CO (stereo not given in full) | 4.46 |  |
| CC(C)[C@@]12C[C@@H](C(=O)OCCO)[C@@](C)(O1)[C@@H]1CC[C@@H](C)[C@H]1[C@@H]2OC(=O)/C=C/c1ccccc1 |  | 7.32 |
